Measured values from article PMC3428502 (Brain research, 2012).
“Also recorded” adds a separate entry of the source.

Experiments:
[1] = system: PC6-3 cells; assay: MTT assay of mitochondrial function; format: cell-based; conditions: for change of mitochondrial function (MTT), in words: 5, 10, 25, 50 μM; for mitochondrial dysfunction: 50 μM
[2] = biological target: T1, tyrosine hydroxylase (TH) (Rattus norvegicus, UniProt P04177); assay: TH activity in whole dopaminergic PC6-3 cells; format: cell-based; conditions: for TH inhibition in PC6-3 cells: 2 h; for inhibition at 20 µM: read-out: TH inhibition in PC6-3 cells
T1 sequence (P04177 whole entry): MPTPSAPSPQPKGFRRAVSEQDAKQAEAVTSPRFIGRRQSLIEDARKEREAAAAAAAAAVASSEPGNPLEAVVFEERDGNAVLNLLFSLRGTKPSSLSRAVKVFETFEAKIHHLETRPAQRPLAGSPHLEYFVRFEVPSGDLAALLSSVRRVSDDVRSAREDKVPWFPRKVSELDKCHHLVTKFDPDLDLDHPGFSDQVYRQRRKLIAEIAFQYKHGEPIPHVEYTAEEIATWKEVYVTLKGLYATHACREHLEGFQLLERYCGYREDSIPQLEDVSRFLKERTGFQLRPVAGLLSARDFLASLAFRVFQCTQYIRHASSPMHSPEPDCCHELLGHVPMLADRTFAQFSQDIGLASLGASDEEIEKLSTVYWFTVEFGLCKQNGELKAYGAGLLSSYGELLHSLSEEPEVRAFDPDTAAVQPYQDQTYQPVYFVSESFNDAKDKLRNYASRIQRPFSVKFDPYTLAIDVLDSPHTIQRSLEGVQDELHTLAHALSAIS

[3] = biological target: T2, BSA (Bos taurus, UniProt P02769); assay: Relative protein reactivity with BSA; conditions: 100 μM, BSA 1 mg/mL, 4 h, 37°C, compared to DOPAL
T2 sequence (P02769 25-607): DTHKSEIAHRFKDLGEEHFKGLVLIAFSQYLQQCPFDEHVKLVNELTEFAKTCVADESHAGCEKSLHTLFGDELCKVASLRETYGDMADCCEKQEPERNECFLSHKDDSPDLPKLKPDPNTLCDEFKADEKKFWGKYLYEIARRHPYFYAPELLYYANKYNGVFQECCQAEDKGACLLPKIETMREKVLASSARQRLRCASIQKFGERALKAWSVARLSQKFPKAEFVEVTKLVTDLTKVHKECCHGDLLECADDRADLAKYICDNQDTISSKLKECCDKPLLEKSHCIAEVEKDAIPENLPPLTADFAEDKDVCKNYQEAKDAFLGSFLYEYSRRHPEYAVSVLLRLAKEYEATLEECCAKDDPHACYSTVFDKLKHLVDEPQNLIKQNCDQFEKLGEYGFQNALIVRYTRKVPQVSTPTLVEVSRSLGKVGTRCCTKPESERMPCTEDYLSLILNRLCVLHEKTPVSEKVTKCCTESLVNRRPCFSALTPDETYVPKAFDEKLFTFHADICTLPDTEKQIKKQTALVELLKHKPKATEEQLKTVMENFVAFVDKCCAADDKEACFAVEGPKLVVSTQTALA

[4] = system: PC6-3 cells; assay: Intracellular concentration in PC6-3 cells by HPLC; format: in vitro ADME, rat
[5] = biological target: T2, BSA; conditions: compared to DOPAL; ref Rees et al., 2009; cited from earlier work
[6] = system: PC6-3 cells; assay: Flow cytometry with DHE for superoxide anion; format: cell-based, rat; conditions: 10 μM, 1 h incubation, vs control cells
[7] = biological target: T1, tyrosine hydroxylase (TH); conditions: 1.0 μM; modified from previously published results; ref Mexas et al., 2011; cited from earlier work
[8] = system: PC6-3 cells; assay: Flow cytometry with DCF-DA for hydrogen peroxide; format: cell-based, rat; conditions: 5 and 10 μM, 1 h, vs control cells
[9] = biological target: T1, tyrosine hydroxylase (TH); assay: TH activity in PC6-3 cell lysate; format: biochemical; conditions: read-out: inhibition of L-DOPA production in cell lysate
[10] = 20 μM placed exogenously on PC6-3 cells

| SMILES | change of mitochondrial function (MTT), in words ([1]; 2 h, vs control cells) | intracellular concentration [4, 10] | times less protein reactivity than DOPAL [5] [times] | inhibition at 20 µM [2] [%] | inhibition at 20 µM [9] [%] | mitochondrial dysfunction ([1]; 2 h, vs control cells) | further results |
| --- | --- | --- | --- | --- | --- | --- | --- |
| N#CCc1ccc(O)c(O)c1 [DHPAN, 3,4-Dihydroxyphenylacetonitrile] | no significant loss of mitochondrial viability; also recorded: no changes to mitochondrial function; also recorded: no significant toxicity |  |  |  |  |  | TH inhibition in PC6-3 cells ([2]; 20 μM final concentration): no significant TH inhibition; Relative protein reactivity (NBT staining of BSA) [3]: no significant staining by NBT |
| COc1ccc(CC=O)cc1OC [DMPAL, 3,4-Dimethoxyphenylacetaldehyde] | no significant loss of mitochondrial viability; also recorded: no changes to mitochondrial function; also recorded: no significant toxicity | ~ 9 μM | 5 | ~40 |  |  |  |
| O=CCc1ccc(O)c(O)c1 [DOPAL, 3,4-dihydroxyphenylacetaldehyde, reference compound] |  |  |  |  |  |  | intracellular concentration ([4]; rat, 5 μM, pH 7.4): 4 to 5 µM; superoxide anion production (DHE) [6]: significantly different from control cells; TH inhibition in cell lysate [7]: ~95%; hydrogen peroxide production (DCF-DA) [8]: significantly less hydrogen peroxide than controls cells; TH inhibition in PC6-3 cells ([2]; 5 μM placed exogenously, intracellular 4–5 μM): ~ 60%; decrease of DA concentration in PC6-3 cells ([2]; DOPAL-treated cells vs control cells, data not shown): ~ 40% |
| O=CCC=O [MDA, Malondialdehyde, reference compound] |  |  |  |  |  |  | effect on TH activity ([2]; 5 μM, used to inhibit ALDH and AR, data not shown): does not inhibit or alter TH activity |
| COc1cc(CC=O)ccc1O [MOPAL, 3-methoxy-4-hydroxyphenylacetaldehyde] | some concentration-dependent dysfunction |  | 5 | ~50 | ~50 | ~ 25% | intracellular concentration ([4]; rat, 20 μM, pH 7.4): 9 to 12 µM |
| O=CCc1ccccc1 [PAL, phenylacetaldehyde] | some concentration-dependent dysfunction | 9 to 12 µM | 10 | ~50 | ~50 | ~ 25% | loss of mitochondrial viability ([1]; 10 μM, 2 h, vs control cells): ~ 15%; loss of mitochondrial viability ([1]; 25 μM, vs controls): ~ 15% |
